Laboratory results as given in ChEMBL document CHEMBL1201862, “PubChem BioAssay data set” (2004).
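Step 1: Grow cells in 96-well plates. Step 2: Expose to compound for 48 hours at 5 concentrations. Step 3: Interpolate endpoints linearly; if unreached, use highest concentration. GI50 = concentration required for 50% inhibition of growth.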 Calls of active or inactive are those of the source. Rule as the data show it: active = GI50 up to about 1.1 µM and inactive = higher.

Tests used:
Assay in all cases: NCI tumour cell line growth inhibition, 48 h
OVCAR-3 = system: OVCAR-3
SK-MEL-5 = system: SK-MEL-5
NCI-H23 = system: NCI-H23
HL-60 = system: HL-60
HOP-18 = system: HOP-18
SNB-19 = system: SNB-19
SR = system: SR
NCI-H226 = system: NCI-H226
SNB-78 = system: SNB-78
M14 = system: M14
SF-539 = system: SF-539
UACC-257 = system: UACC-257
MOLT-4 = system: MOLT-4
LOX IMVI = system: LOX IMVI
UO-31 = system: UO-31
ACHN = system: ACHN
HCC 2998 = system: HCC 2998
Hs-578T = system: Hs-578T
K562 = system: K562
PC-3 = system: PC-3
HOP-62 = system: HOP-62
U-251 = system: U-251
HCT-116 = system: HCT-116
DMS-114 = system: DMS-114
OVCAR-5 = system: OVCAR-5
A549 = system: A549
HOP-92 = system: HOP-92
NCI-H460 = system: NCI-H460
HCT-15 = system: HCT-15
KM-20L2 = system: KM-20L2
DU-145 = system: DU-145
A498 = system: A498
MDA-N = system: MDA-N
MCF7 = system: MCF7
RXF 631 = system: RXF 631
EKVX = system: EKVX
DMS-273 = system: DMS-273
SNB-75 = system: SNB-75
IGROV-1 = system: IGROV-1
SW-620 = system: SW-620
COLO 205 = system: COLO 205
OVCAR-4 = system: OVCAR-4
Malme-3M = system: Malme-3M
786-0 = system: 786-0
RXF 393 = system: RXF 393
TK-10 = system: TK-10
DLD-1 = system: DLD-1
NCI/ADR-RES = system: NCI/ADR-RES
T47D = system: T47D
HT-29 = system: HT-29
SF-268 = system: SF-268
MDA-MB-231 = system: MDA-MB-231
M19-MEL = system: M19-MEL
BT-549 = system: BT-549
SF-295 = system: SF-295
RPMI-8226 = system: RPMI-8226
SK-MEL-28 = system: SK-MEL-28
OVCAR-8 = system: OVCAR-8
UACC-62 = system: UACC-62
LXFL 529 = system: LXFL 529
SN12C = system: SN12C
NCI-H522 = system: NCI-H522
SK-MEL-2 = system: SK-MEL-2
MDA-MB-435 = system: MDA-MB-435
KM12 = system: KM12
SK-OV-3 = system: SK-OV-3
CAKI-1 = system: CAKI-1
XF498 = system: XF498
CCRF-CEM = system: CCRF-CEM

Measured: GI50

CC[C@@H](C)[C@H]([C@H](CC(=O)N1CCC[C@@H]1[C@@H](OC)[C@H](C)C(=O)N[C@H](Cc1ccccc1)c1nccs1)OC)N(C)C(=O)[C@H](NC(=O)[C@@H](C(C)C)N(C)C)C(C)C
0.366 nM: HCT-15
active: OVCAR-3 0.0311 nM | SK-MEL-5 0.0251 nM | NCI-H23 0.224 nM | HL-60 0.0351 nM | HOP-18 4.07 nM | SNB-19 0.267 nM | SR 0.0275 nM | NCI-H226 0.153 nM | SNB-78 1.08 nM | M14 0.165 nM | SF-539 0.168 nM | UACC-257 0.262 nM | MOLT-4 0.229 nM | LOX IMVI 0.161 nM | UO-31 2.06 nM | ACHN 0.439 nM | HCC 2998 0.29 nM | Hs-578T < 10 nM | K562 0.0693 nM | PC-3 < 10 nM | HOP-62 0.193 nM | U-251 0.249 nM | HCT-116 0.125 nM | DMS-114 0.288 nM | OVCAR-5 0.5 nM | A549 0.121 nM | HOP-92 1.04 nM | NCI-H460 0.059 nM | KM-20L2 0.0679 nM | DU-145 < 10 nM | A498 0.228 nM | MDA-N < 10 nM | MCF7 < 10 nM | RXF 631 0.461 nM | EKVX 0.277 nM | DMS-273 0.159 nM | SNB-75 0.161 nM | IGROV-1 0.681 nM | SW-620 0.0912 nM | COLO 205 0.0713 nM | OVCAR-4 0.745 nM | Malme-3M 0.624 nM | 786-0 0.184 nM | RXF 393 0.191 nM | TK-10 1.81 nM | DLD-1 0.387 nM | NCI/ADR-RES < 10 nM | HT-29 0.0224 nM | SF-268 0.39 nM | MDA-MB-231 < 10 nM | M19-MEL 0.208 nM | BT-549 < 10 nM | SF-295 0.146 nM | RPMI-8226 0.143 nM | SK-MEL-28 0.69 nM | OVCAR-8 0.286 nM | UACC-62 0.175 nM | LXFL 529 0.502 nM | SN12C 0.486 nM | NCI-H522 < 10 nM | SK-MEL-2 0.125 nM | MDA-MB-435 < 10 nM | KM12 0.0167 nM
inactive: T47D > 77600 nM

COc1ccc(S(=O)(=O)N/N=C/CN2C(=O)c3ccccc3C2=O)cc1OC
inactive: OVCAR-3 > 100000 nM | SK-MEL-5 > 100000 nM | NCI-H23 > 100000 nM | HL-60 > 100000 nM | SNB-19 > 100000 nM | SR > 100000 nM | M14 > 100000 nM | SF-539 > 100000 nM | UACC-257 > 100000 nM | MOLT-4 > 100000 nM | LOX IMVI > 100000 nM | UO-31 > 100000 nM | ACHN > 100000 nM | HCC 2998 > 100000 nM | K562 > 100000 nM | SK-OV-3 > 100000 nM | HOP-62 > 100000 nM | U-251 > 100000 nM | HCT-116 > 100000 nM | DMS-114 > 100000 nM | A549 > 100000 nM | NCI-H460 > 100000 nM | KM-20L2 > 100000 nM | A498 > 100000 nM | RXF 631 > 100000 nM | EKVX > 100000 nM | DMS-273 > 100000 nM | SNB-75 65200 nM | IGROV-1 > 100000 nM | SW-620 > 100000 nM | COLO 205 > 100000 nM | OVCAR-4 > 100000 nM | CAKI-1 > 100000 nM | Malme-3M > 100000 nM | 786-0 > 100000 nM | RXF 393 > 100000 nM | DLD-1 > 100000 nM | XF498 > 100000 nM | CCRF-CEM > 100000 nM | HT-29 > 100000 nM | SF-268 > 100000 nM | M19-MEL > 100000 nM | SF-295 > 100000 nM | RPMI-8226 > 100000 nM | OVCAR-8 > 100000 nM | UACC-62 > 100000 nM | LXFL 529 > 100000 nM | NCI-H522 > 100000 nM | SK-MEL-2 > 100000 nM | KM12 > 100000 nM
> 100000 nM: HCT-15
